# Experimental data taken from patent US8435984B2, “Tertiary amine substituted peptides useful as inhibitors of HCV replication” (Achillion Pharmaceuticals, Inc., priority 2007, dated 2013).
# Tested on: HCV replicon
# Assay: HCV replicon replication assay (NPT ELISA) in Huh-7 replicon-containing cells
# Assay type: cell-based, Hepatitis C virus
# Conditions: inhibition of HCV replicon replication, Huh-7 HCV replicon-containing cells, three days
# Experimental: Compounds claimed herein are tested for the ability to inhibit viral replication of the Hepatitis C replicon in cultured cells in which the HCV replicon construct has been incorporated. The HCV replicon system was described by Bartenschlager, et. al (Science, 285, pp. 110-113 (1999)). The replicon system is predictive of in vivo anti-HCV activity; compounds that are active in humans uniformly evidence activity in the replicon assay.
# In this assay HCV replicon containing cells are treated with different concentrations of the test compound to ascertain the ability of the test compound to suppress replication of the HCV replicon. As a positive control, HCV replicon-containing cells are treated with different concentrations of interferon alpha, a known inhibitor of HCV replication. The replicon assay system includes Neomycin Phosphotransferase (NPT) as a component of the replicon itself in order to detect the transcription of replicon gene products in the host cell. Cells in which the HCV replicon is actively replicating have high levels of NPT; the level of NPT is proportional to HCV replication. […] The NPT level of each sample is measured using a captured ELISA.
# The HCV replicon contains, 5′-3′, the HCV-IRES, the neomycin phosphotransferase (neo) gene, the IRES of encephalomyocarditis virus, which directs translation of HCV sequences NS3 to NS5B, and the 3′-NTR. The sequence of the HCV replicon has been deposited in GenBank (Accession no. AJ242652).
# The replicon is transfected into Huh-7 cells using standard methods such as electroporation.
# HCV replicon-containing cells are rinsed with once PBS once; 2 mls of trypsin are then added. Cells are incubated at 37° C. in a 5% CO2 incubator for 3-5 minutes. 10 mls of complete medium is added to stop the reaction. Cells are blown gently, put into a 15 ml tube, and spun at 1200 rpm for four minutes. The trypsin/medium solution is removed and 5 mls of medium (500 ml DMEM (high glucose)) from BRL catalog #12430-054; 50 mls 10% FBS, 5% Geneticin G418 (50 mg/ml, BRL catalog #10131-035), 5 ml MEM non-essential amino acids (100×BRL #11140-050) and 5 ml pen-strep (BRL #15140-148) is added. The cells and media are mixed carefully
# Cells are plated with screening medium (500 ml DMEM (BRL #21063-029), 50 ml FBS (BRL #10082-147) and 5 ml MEM non-essential amino acid (BRL #11140-050) at 6000-7500 cells/100 μl/well of 96 well plate (6-7.5×10^5 cells/10 ml/plate). Plates are placed into 37° C. 5% CO2 incubator overnight. 6D. Assay
# The following morning, drugs (test compounds or interferon alpha) are diluted in 96 well U bottom plates with media or DMSO/media, depending on the final concentration chosen for screening. Generally for 6 concentrations of each test compounds ranging from 10 micromolar to 0.03 micromolar are applied. 100 μl of the test compound dilution is placed in wells of the 96 well plate containing the HCV replicon cells. Media without drug is added to some wells as a negative controls. DMSO is known to affect cell growth. Therefore, if drugs diluted in DMSO are used, all wells, including negative control (media only) and positive control (interferon alpha) wells, must contain the same concentration of DMSO, for single dose screening. The plates are incubated at 37° C. in a humidified 5% CO2 environment for three days.
# On day four, the NTPII assay is quantitated. The medium is poured from the plates and the plates are washed once in 200 μl of PBS. The PBS is then decanted and the plates tapped in a paper towel to remove any remaining PBS. Cells are fixed in situ with 100 id/well of pre-cooled (−20° C.) methanol:acetone (1:1) and the plates are placed at −20° C. for 30 minutes.
# The fixing solution is poured from the plates and the plates allowed to air-dry completely (approximately one hour). The appearance of the dried cell layer is recorded and the density of the cells in the toxic wells is scored with the naked eye. […]
SMILES,"EC50 (Hepatitis C virus, 72 h) [µM]",EC50 [µM]
"CCCC(NC(=O)C1C2CCCC2CN1C(=O)C(C)N1CCCCC1)C(=O)C(=O)NC1CC1 (centres unmarked) [Compound 35, N-(1-(cyclopropylamino)-1,2-dioxohexan-3-yl)-2-(2-(piperidin-1-yl)propanoyl)octahydrocyclopenta [c]pyrrole-1-carboxamide]",< 100,
"CCCC(NC(=O)C1C2CCCC2CN1C(=O)C(c1ccccc1)N1CCCCC1)C(=O)C(=O)NC1CC1 (centres unmarked) [Compound 36, N-(1-(cyclopropylamino)-1,2-dioxohexan-3-yl)-2-(2-phenyl-2-(piperidin-1-yl)acetyl)octahydrocyclopenta[c] pyrrole-1-carboxamide]",< 100,
"CCCC(NC(=O)C1C2CCCC2CN1C(=O)C(C)N1CCCCCC1)C(=O)C(=O)NC1CC1 (centres unmarked) [Compound 37, 2-(2-(azepan-1-yl)propanoyl)-N-(1-(cyclopropylamino)-1,2-dioxohexan-3-yl)octahydrocyclopenta[c]pyrrole-1-carboxamide]",< 100,
"CCCC(NC(=O)C1C2CCCC2CN1C(=O)[C@@H](NC(=O)OC(C)(C)C)C(C)(C)C)C(=O)C(=O)NC1CC1 (stereo partly drawn) [Compound 39, tert-butyl(2S)-1-(1-(1-(cyclopropylamino)-1,2-dioxohexan-3-ylcarbamoyl)hexahydrocyclopenta[c]pyrrol-2(1H)-yl)-3,3-dimethyl-1-oxobutan-2-ylcarbamate]",< 100,
"CCCC(NC(=O)C1C2CCCC2CN1C(=O)C(C)N1CCCC1)C(=O)C(=O)NC1CC1 (centres unmarked) [Compound 40, N-(1-(cyclopropylamino)-1,2-dioxohexan-3-yl)-2-(2-(pyrrolidin-1-yl)propanoyl)octahydrocyclopenta [c]pyrrole-1-carboxamide]",< 100,
"CCCC(NC(=O)C1C2CCCC2CN1C(=O)[C@@H](C)N1CCCCC1)C(=O)C(=O)NC1CC1 (stereo partly drawn) [Compound 42, N-(1-(cyclopropylamino)-1,2-dioxohexan-3-yl)-2-((R)-2-(piperidin-1-yl)propanoyl)octahydrocyclopenta [c]pyrrole-1-carboxamide]",> 100,
"CCCC(NC(=O)C1C2CCCC2CN1C(=O)[C@@H](C)N1CCCC1)C(=O)C(=O)NC1CC1 (stereo partly drawn) [Compound 43, N-(1-(cyclopropylamino)-1,2-dioxohexan-3-yl)-2-((R)-2-(pyrrolidin-1-yl)propanoyl)octahydrocyclopenta [c]pyrrole-1-carboxamide]",> 100,
"CCCC(NC(=O)[C@@H]1C[C@@H](OC(=O)N2CCc3ccccc3C2)CN1C(=O)C(C)N1CCCCC1)C(=O)C(=O)NC1CC1 (stereo partly drawn) [Compound 44, (3R,5S)-5-(1-(cyclopropylamino)-1,2-dioxohexan-3-ylcarbamoyl)-1-(2-(piperidin-1-yl)propanoyl)pyrrolidin-3-yl 3,4-dihydroisoquinoline-2(1H)-carboxylate]",< 100,
"CCCC(NC(=O)C1C[C@@H](OC(=O)N2CCc3ccccc3C2)CN1C(=O)C(C)N1CCCC1)C(=O)C(=O)NC1CC1 (stereo partly drawn) [Compound 45, (3R,5S)-S-(1-(cyclopropylamino)-1,2-dioxohexan-3-ylcarbamoyl)-1-(2-(pyrrolidin-l-yl)propanoyl)pyrrolidin-3-yl 3,4-dihydroisoquinoline-2(1H)-carboxylate]",> 100,
"CCCC(NC(=O)C1C2CCCC2CN1C(=O)[C@H](C)N1CCCCC1)C(=O)C(=O)NC1CC1 (stereo partly drawn) [Compound 46, N-(1-(cyclopropylamino)-1,2-dioxohexan-3-yl)-2-((S)-2-(piperidin-1-yl)propanoyl)octahydrocyclopenta [c]pyrrole-1-carboxamide]",< 100,
"CCCC(NC(=O)C1C2CCCC2CN1C(=O)[C@@H](N1CCCCC1)C(C)(C)C)C(=O)C(=O)NC1CC1 (stereo partly drawn) [Compound 47, N-(1-(cyclopropylamino)-1,2-dioxohexan-3-yl)-2-((S)-3,3-dimethyl-2-(piperidin-1-yl)butanoyl)octahydrocyclopenta [c]pyrrole-1-carboxamide]",< 100,
"CCCC(NC(=O)C1C2CCCC2CN1C(=O)[C@@H](N1CCCCC1)C(C)(C)C)C(=O)C(=O)NC1CC1 (stereo partly drawn) [Compound 48, N-(1-(cyclopropylamino)-1,2-dioxohexan-3-yl)-2-((S)-3,3-dimethyl-2-(piperidin-1-yl)butanoyl)octahydrocyclopenta [c]pyrrole-1-carboxamide]",,< 100
"CCCC(NC(=O)C1C2CCCC2CN1C(=O)[C@H](C(C)C)N1CCCCC1)C(=O)C(=O)NC1CC1 (stereo partly drawn) [Compound 49, N-(1-(cyclopropylamino)-1,2-dioxohexan-3-yl)-2-((S)-3-mcthyl-2-(piperidin-1 - yl)bulanoyl)octahydrocyclopenta [c]pyrrole-1-carboxamide]",< 100,
"C=CC1CC1(NC(=O)[C@@H]1C[C@@H](Oc2cc(-c3ccccc3)nc3cc(OC)ccc23)CN1C(=O)[C@@H](N1CCCCC1)C(C)(C)C)C(=O)OCC (stereo partly drawn) [Compound 50, ethyl 1-((2S,4R)-1-((S)-3,3-dimethyl-2-(piperidin-1-yl)butanoyl)-4-(7-methoxy-2-phenylquinolin-4-yloxy)pyrrolidine-2-carboxamido)-2-vinylcyclopropanecarboxylate]",< 100,
"C=CC1CC1(NC(=O)[C@@H]1C[C@@H](Oc2cc(-c3ccccc3)nc3cc(OC)ccc23)CN1C(=O)[C@H](c1ccccc1)N1CCCCC1)C(=O)OCC (stereo partly drawn) [Compound 51, ethyl 1-((2S,4R)-4-(7-methoxy-2-phenylquinolin-4-yloxy)-1-((S)-2-phenyl-2-(piperidin-1-yl)acetyl)pyrrolidine-2-carboxamido)-2-vinylcyclopropanecarboxylate]",< 100,
"C=CC1CC1(NC(=O)[C@@H]1C[C@@H](Oc2cc(-c3ccccc3)nc3cc(OC)ccc23)CN1C(=O)[C@H](C(C)C)N1CCCCC1)C(=O)OCC (stereo partly drawn) [Compound 52, ethyl 1-((2S,4R)-4-(7-methoxy-2-phenylquinolin-4-yloxy)-1-((S)-3-methyl-2-(piperidin-1-yl)butanoyl)pyrrolidine-2-carboxamido)-2-vinylcyclopropanecarboxylate]",< 100,
"C=CC1CC1(NC(=O)[C@@H]1C[C@@H](Oc2cc(-c3ccccc3)nc3cc(OC)ccc23)CN1C(=O)[C@H](C1CCCCC1)N1CCCCC1)C(=O)OCC (stereo partly drawn) [Compound 53, ethyl 1-((2S,4R)-1-((S)-2-cyclohexyl-2-(piperidin-1-yl)acetyl)-4-(7-methoxy-2-phenylquinolin-4-yloxy)pyrrolidine-2-carboxamido)-2-vinylcyclopropanecarboxylate]",< 100,
"C=CC1CC1(NC(=O)[C@@H]1C[C@@H](Oc2cc(-c3ccccc3)nc3cc(OC)ccc23)CN1C(=O)[C@H](C)N1CCCCC1)C(=O)OCC (stereo partly drawn) [Compound 54, ethyl 1-((2S,4R)-4-(7-methoxy-2-phenylquinolin-4-yloxy)-1-((S)-2-(piperidin-1-yl)propanoyl)pyrrolidine-2-carboxamido)-2-vinylcyclopropanecarboxylate]",< 100,
"C=CC1CC1(NC(=O)[C@@H]1C[C@@H](Oc2cc(-c3ccccc3)nc3cc(OC)ccc23)CN1C(=O)[C@@H](N1CCCCC1)C(C)(C)C)C(=O)O (stereo partly drawn) [Compound 55, 1-((2S,4R)-1-((S)-3,3-dimethyl-2-(piperidin-1-yl)butanoyl)-4-(7-methoxy-2-phenylquinolin-4-yloxy)pyrrolidine-2-carboxamido)-2-vinylcyclopropanecarboxylic acid]",< 100,
"C=CC1CC1(NC(=O)[C@@H]1C[C@@H](Oc2cc(-c3ccccc3)nc3cc(OC)ccc23)CN1C(=O)[C@H](c1ccccc1)N1CCCCC1)C(=O)O (stereo partly drawn) [Compound 56, 1-((2S,4R)-4-(7-methoxy-2-phenylquinolin-4-yloxy)-1-((S)-2-phenyl-2-(piperidin-1-yl)acetyl)pyrrolidine-2-carboxamido)-2-vinylcyclopropanecarboxylic acid]",> 100,
